Experimental data reported in PubChem BioAssay (NCI).
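Where inhibition never reached the appropriate level, the endpoint shown equals the highest concentration tested. Otherwise, values were interpolated linearly from a five-concentration, 48-hour dose response in 96-well plates. TGI marks complete inhibition of growth.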

Assays:
Assay in all cases: DTP human tumour cell line panel, 48 h
[1] = test system: COLO 205 colon
[2] = test system: PC-3 prostate
[3] = test system: CAKI-1 renal
[4] = test system: NCI/ADR-RES ovarian
[5] = test system: HL-60(TB) leukemia
[6] = test system: M14 melanoma
[7] = test system: SK-MEL-28 melanoma
[8] = test system: MOLT-4 leukemia
[9] = test system: HOP-92 NSCLC
[10] = test system: SK-MEL-2 melanoma

Row | SMILES | TGI [1] [µM] | TGI [2] [µM] | TGI [3] [µM] | TGI [4] [µM] | TGI [5] [µM] | TGI [6] [µM] | TGI [7] [µM] | TGI [8] [µM] | TGI [9] [µM] | TGI [10] [µM]
1 | O=NN1CCCS1(=O)=O | > 100 | > 100 | > 100 | > 100 | > 100 | > 100 | > 100 | > 100 |  | 
2 | Cn1c(=O)n(CC2CS2)c2ccccc21 (stereo unspecified) | > 100 |  | > 100 |  | > 100 | > 100 | > 100 | > 100 | > 100 | > 100
3 | O=C1c2ccccc2C(=O)c2nn(N=P(CP(=Nn3nc4c(n3)C(=O)c3ccccc3C4=O)(c3ccccc3)c3ccccc3)(c3ccccc3)c3ccccc3)nc21 | > 100 | > 100 | > 100 | > 100 | > 100 | > 100 | > 100 | > 100 | > 100 | > 100
4 | Nn1c(Sc2nc3ccccc3c(=O)n2N)nc2ccccc2c1=O | 28.8 | 28.4 | 20.3 | 28.4 |  | 4.02 | 13.1 | 3.69 | 29.3 | 14.3
5 | O=c1oc2cccnc2n1CCCCN1CCN(c2ccccc2)CC1 |  | > 100 | > 100 | > 100 | > 100 | > 100 | > 100 | > 100 | > 100 | > 100
6 | COc1cc2c(cc1O)CCN(C)[C@H]2Cc1ccc(Oc2c(O)c(OC)cc3c2C[C@H]2c4c(c(OC)c(OC)c(OC)c4-3)CCN2C)cc1 | 12.7 | 8.9 | 10.9 | 14.1 | 10.6 | 10.9 | 11.7 | 11 | 7.17 | 12.6
7 | NC1c2c(Cl)sc(Cl)c2C(=O)C1O (stereo unspecified) | 44.4 | > 100 | 47.4 | 90.6 | 30.1 | > 100 |  | 57.5 | 84.3 | > 100
8 | COC(=O)/C=c1/c2ccccc2n2c1c1ccccc1[n+]2C | 2.51 | 9.79 | 70.9 | > 100 | 8.44 | 15.5 | 19.9 | > 100 |  | 11.6
9 | Cc1ccc(NC2=N/C(=C/c3ccco3)C(Cl)=N2)cc1 | > 100 | > 100 | > 100 | > 100 | > 100 | > 100 | > 100 | > 100 | > 100 | > 100
10 | NC(=S)N/N=C1\CCCC1C(O)(C(F)(F)Cl)C(F)(F)Cl (stereo unspecified) | > 10 | > 10 | > 10 | > 10 |  | > 10 | > 10 | > 10 | > 10 | > 10
11 | CCN(CC)C1Oc2cc3c(cc2C(c2cc(OC)c(OC)c(OC)c2)C1C)OCO3 (stereo unspecified) | 4.8 | > 57.4 | > 44.2 | 0.771 | 0.932 | > 37.9 | 34.3 | 13.1 | 96.5 | 11.7
